Measurements as given in paper PMC13233288, “Spider venom peptides Ht1a and Gg1a are toxic to honeybee parasite Varroa destructor by topical application” (npj Drug Discovery, 2026).

Experiments:
V. destructor mites = test: Topical application of synthetic peptides and oxalic acid to V. destructor mites; assay type: in vivo, Varroa destructor; conditions: 3% oxalic acid, positive control
Experimental: An outline of the project discovery pipeline is presented in Supplementary Fig. 1. To identify varroacidal venom peptides, we screened venoms for activity against V. destructor by topical application. Topical tests were performed in several stages. First, whole venom was tested to determine mortality for V. destructor. Hit venoms were then subjected to several fractionation steps to isolate the active compounds. For the initial venom screen, a panel of 50 arthropod venoms (Table 1) were topically applied to V. destructor mites. Venoms were dissolved in 90% acetonitrile (v/v), and a 10 μg venom aliquot was applied per mite (n = 5 mites per venom). The dorsal plate of V. destructor mites (average mass 0.38 mg) was fixed to adhesive tape (ScotchTM 666 3 M; 19 × 32.9 mm, double sided) on microscope slides (ground edges 90° frosted end, 76 × 26 mm). A Nanoject II (Automatic Injector with Glass Capillaries, Drummond Cat.No. 3-000-205 A) was used for topical application of venom and control (90% acetonitrile) solutions. To accelerate solvent evaporation, the total volume of 483 nL was applied in seven aliquots of 69 nL each to the ventral plate of the mites between the posterior pair of legs. Each drop was allowed to dry before applying the next one, with the entire application procedure taking up to 1 h. Mite mortality was determined at various time intervals up to 48 h after the treatment using an Olympus stereomicroscope (SZX10/SZX2 Series). Initially, each mite was examined for movements of the legs, and immobile mites were stimulated with the tip of a wooden toothpick. Detection of static electricity by the mites, a few millimetres before the actual contact with the toothpick, was usually sufficient to trigger movement in mites that were still alive. […] At the later stage of the project, the slides with mites were placed into a self-constructed automated video monitoring system (using a USB camera) that employs an algorithm in OpenCV to subtract images from subsequent frames enabling the detection of changes in pixel intensity due to movements, for example of the extremities. Leg movements were stimulated with an air current applied over the mites at the time of image acquisition to determine mite mortality. The percentage of mite mortality for each venom was calculated at 2, 6 and 24 h, and adjusted by correcting for the mortality of the corresponding control group receiving only 90% acetonitrile.
The same procedure initially used for identifying varroacidal venoms was used for testing the topical activity of sHt1a and sGg1a. The peptides were dissolved in 0.5% Silwet L-77 (v/v), a silicone-based surfactant that is commonly used as a spreading agent for foliar sprays. 0.48 μg of peptide was topically applied to each mite, with n = 5 mites per treatment group. The activity of the sHt1a was confirmed using three cohorts of n = 5 mites, whereas the activity of sGg1a was confirmed using four cohorts of n = 5 mites. As a negative control, an equal volume of 0.5% Silwet (v/v) was topically applied (four cohorts of n = 5 mites), and 3% oxalic acid, a known varroacide used in commercial products[10] was used as positive control (eight cohorts of n = 5 mites). Mite mortality was recorded at 2-hourly intervals between 0 and 48 h after the treatment. For statistical analysis, mite survival data were plotted in Prism 10.0 (GraphPad Software, CA, USA), then a two-way ANOVA followed by Dunnett’s multiple comparisons test was performed, comparing the peptide and oxalic acid treatment against the respective 0.5% Silwet (v/v) control group data.

[1] = cited from earlier work
From the text: (§1) A possible alternative solution for control of V. destructor is venom-derived acaricidal peptides. Venomous arachnids such as spiders and scorpions prey on arthropods, including other arachnids[17]–[19]. It is therefore unsurprising that the wide-spectrum insecticidal spider-venom peptide ω-hexatoxin-Hv1a (hereafter Hv1a) is also acaricidal. […] It therefore seems plausible that within the venoms of >53,000 extant spider[23] and >2,800 extant scorpion species, each comprising hundreds to thousands of p ...

honeybees = conditions: cited from earlier work
From the text: as §1

mammals = conditions: cited from earlier work
From the text: as §1

Row | Molecule | time to significant mortality (V. destructor mites; eight cohorts of n = 5 mites) [h] | survival of V. destructor (V. destructor mites; vs 0.5% Silwet group, two-way ANOVA, Dunnett) | acaricidal activity [1] | activity against honeybees (honeybees) | activity against mammals (mammals)
1 | O=C(O)C(=O)O [oxalic acid, reference compound] | 2 | significantly reduced V. destructor survival | – | – | –
2 | ω-hexatoxin-Hv1a | – | – | acaricidal | inactive | inactive
